Experiment: Human HepG2 cell viability assay in 384 well format
Type: toxicity, cell-based
Set-up: dose 125 nL, time 70.5 hour; concentration not given beside the values
Settings: HepG2 cells, read-out: Inhibition

Going from `O=C1CC[C@@H]2[C@@H](CCN2C(=O)c2ccsc2)N1Cc1ccncc1` to `O=C1CC[C@@H]2[C@@H](CCN2Cc2ccncc2)N1c1ccccc1`, the cytotoxicity at 70.5 h rises from 0.223% to 4.02%.

Compared with `CC(=O)N1[C@H](Cn2cncn2)C[C@@H]2CN(CC3CC3)CC[C@@H]21`, `O=C(CN1CCCC1Cn1cncn1)Nc1cccnc1` (stereo unspecified) is lower in cytotoxicity at 70.5 h: -1.99% for the first, -7.61% for the second.

Going from `COC[C@H]1CCC[C@]12CN(C(=O)NCc1ccccc1)CCO2` to `COCC1COCCC12CCN(C(=O)COc1ccccc1)CC2` (stereo unspecified), the cytotoxicity at 70.5 h rises from -16.8% to -14.3%.

First: CN(C)c1ccc(CCNC(=O)NCc2ccc(N(C)C)nc2)cc1
Second: CN(C)c1cc(CNC(=O)Nc2ccc(S(C)(=O)=O)nc2)ccn1
The cytotoxicity at 70.5 h of the first is higher: -3.36% for the first, -15.4% for the second.

Going from `O=C1[C@H]2CN(Cc3ccoc3)C[C@@H]2CCN1Cc1cccnc1` to `CN(C)Cc1nnc2n1CCN(Cc1cccnc1)C2`, the cytotoxicity at 70.5 h rises from -8.89% to -2.36%.

First: CN(Cc1noc(C(C)(C)C)n1)Cc1ccccc1N1CCCCC1
Second: Oc1nnc(-c2cccs2)c2sc(N3CCCCC3)nc12
The cytotoxicity at 70.5 h of the first is lower: -6.13% for the first, -1.82% for the second.

Compared with `CS(=O)(=O)NCC1CCCN(c2ccc(C(F)(F)F)cn2)C1` (stereo unspecified), `CN1CCC(Nc2ccc(Cl)cc2OCC(F)(F)F)C1=O` (stereo unspecified) is higher in cytotoxicity at 70.5 h: -7.49% for the first, -3.11% for the second.

Compared with `CNS(=O)(=O)CCCn1nnc(-c2ccc(F)c(C)c2)n1`, `CS(=O)(=O)Nc1nn(Cc2ccc(F)cc2)cc1Br` is lower in cytotoxicity at 70.5 h: -3.63% for the first, -3.65% for the second.

Compared with `COC(=O)C1CCN(C(=O)c2cccc(NS(C)(=O)=O)c2C)CC1`, `Cc1ccc(S(=O)(=O)N2CCC(c3n[nH]cc3C(=O)N(C)C)CC2)cc1` is higher in cytotoxicity at 70.5 h: -7.56% for the first, 8.18% for the second.

Compared with `CNc1cncc(C2CCCN2C(=O)c2ccc3nc(C)[nH]c3c2)n1` (stereo unspecified), `CN(C)c1cc(C(=O)N2CCCCC2Cn2cccn2)ccn1` (stereo unspecified) is higher in cytotoxicity at 70.5 h: -3.29% for the first, -1.9% for the second.

Compared with `O=C(NCc1nccn1CCc1ccccc1)NCC1CCC1`, `CN(C(=O)NCc1nccn1Cc1ccccc1)C1CC1` is higher in cytotoxicity at 70.5 h: 2.35% for the first, 9.16% for the second.

Compared with `COc1cc(CNC(=O)Nc2nnc(C(C)C)s2)ccn1`, `Cc1ccc(C)c(OC(C)C(=O)NCCNc2cccnc2)c1` (stereo unspecified) is lower in cytotoxicity at 70.5 h: 1.23% for the first, -0.127% for the second.

Compared with `COCCN1C(=O)CO[C@H]2CN(CCCc3ccccc3)C[C@H]21`, `COCCCN1C(=O)CC[C@H]2CN(c3cnc4ccccc4n3)CC[C@H]21` is higher in cytotoxicity at 70.5 h: -1.96% for the first, 25% for the second.

Going from `Cc1oc(-c2nc(C#N)c(NC(C)C)o2)cc1S(=O)(=O)N1CCCCC1` to `CC(C)n1cnnc1C1CCCN(S(=O)(=O)CCCC#N)C1` (stereo unspecified), the cytotoxicity at 70.5 h falls from -21.8% to -35.2%.

Going from `Cc1noc(C)c1CNCc1c(C(C)C)nn(C)c1N1CCOCC1` to `CC(C)c1nc(CN2CCN(C(=O)OC(C)(C)C)C(C)C2)no1` (stereo unspecified), the cytotoxicity at 70.5 h rises from -10.5% to -2.12%.

Compared with `Cc1ccc(-c2nnc(CN3CCN(c4ccccn4)CC3)o2)cc1`, `O=C(c1cnccn1)N1CCCC2(CCN(c3ccccn3)C2)C1` (stereo unspecified) is higher in cytotoxicity at 70.5 h: 3.67% for the first, 19.3% for the second.

Going from `Cc1nn(C)c2c(NCc3ccccn3)ncnc12` to `CCN(C)Cc1cccc(CNC(=O)CSCc2ccccn2)c1`, the cytotoxicity at 70.5 h falls from -2.17% to -15.2%.

Compared with `Cc1nc(CN(C)C2CCN(Cc3nc4c(F)cccc4[nH]3)C2)no1` (stereo unspecified), `COc1ccc(OC)c(-c2nc(CN(C)Cc3noc(C)n3)c(C)o2)c1` is lower in cytotoxicity at 70.5 h: 4.6% for the first, -21.2% for the second.

Going from `CSc1ccc(CN2CCC(CCC(=O)Nc3ccccc3)CC2)cc1` to `CNS(=O)(=O)c1ccc(C(=O)N2CCCC2c2ccccc2)o1` (stereo unspecified), the cytotoxicity at 70.5 h falls from 8.45% to -14.1%.

Going from `Cc1ccccc1CNc1ccccc1OCC(=O)N1CCOCC1` to `O=C(CN1CCc2[nH]c3ccccc3c2C1)NCc1ccco1`, the cytotoxicity at 70.5 h falls from -3.34% to -10.8%.

First: COCCN1CCC(c2nc3cc(C)ccc3[nH]2)CC1
Second: Cc1noc(C)c1C(=O)N1CCC(c2cc3cnccc3[nH]2)CC1
The cytotoxicity at 70.5 h of the first is lower: -8.34% for the first, -5.78% for the second.

Compared with `CC(O)C1CCN(C(=O)Nc2nc(-c3ccccc3)ns2)CC1` (stereo unspecified), `CCC(CC)c1nnc(NC(=O)N2CCC(C(N)=O)CC2)s1` is lower in cytotoxicity at 70.5 h: 4.55% for the first, -0.155% for the second.

Going from `COC(=O)COn1c(SCC(=O)OC)nc2ccccc2c1=O` to `CCCSc1nc(O)c(CC)c(=O)n1-c1ccccc1`, the cytotoxicity at 70.5 h falls from -6.15% to -6.46%.

Going from `CCOc1ccc(Cl)c(C(=O)N2CCN(CCO)CC2)n1` to `COc1ccnc(N2CCN(C(=O)c3csc(C)n3)CC2)n1`, the cytotoxicity at 70.5 h rises from -6.15% to -4.93%.

Going from `COc1ccc(C)cc1-n1cnnc1C1CC(=O)N(C)C1` (stereo unspecified) to `COc1cccc2c(=O)n(C3CCCNC3)cnc12` (stereo unspecified), the cytotoxicity at 70.5 h falls from -4.76% to -11.4%.

Compared with `CN1CC2(CCN(CC3CC3)CC2)COc2ccccc2S1(=O)=O`, `Cc1ccc(CN2CCC3(CCC3NS(=O)(=O)c3ccccc3)CC2)o1` (stereo unspecified) is higher in cytotoxicity at 70.5 h: -1.33% for the first, 8.23% for the second.

Going from `Cc1cnn(CC2CCCN2Cc2nc(N)c3ccccc3n2)c1` (stereo unspecified) to `CC(C)c1nc(C2CCCN(c3cnc4ccccc4n3)C2)no1` (stereo unspecified), the cytotoxicity at 70.5 h falls from 45.2% to -5.55%.

Compared with `CC(C)NC(=O)N1CCOC2(CCNCC2)C1`, `CC(C)COC(C)C(=O)N1CCCCC1` (stereo unspecified) is lower in cytotoxicity at 70.5 h: -2.57% for the first, -3.46% for the second.

Compared with `O=C(CCc1nnc2ccccn2c1=O)NCc1cccnc1`, `N#Cc1ccc(C(=O)N2CCn3c(Cn4cccn4)cnc3C2)cc1` is higher in cytotoxicity at 70.5 h: -14.8% for the first, 7.14% for the second.

First: COc1ccc(OCc2sc(C3(O)CCCNCC3)nc2C)cc1 (stereo unspecified)
Second: COc1ccc([C@@H](C)n2ccnc2-c2cc3n(n2)CCCNC3)cc1
The cytotoxicity at 70.5 h of the first is lower: -10.3% for the first, 18.8% for the second.

First: O=C(CCc1nccs1)N1CCCC(N2CCNC2=O)C1 (stereo unspecified)
Second: O=C(O)C1CCCN(C(=O)CCn2ccc3c(Br)cccc32)C1 (stereo unspecified)
The cytotoxicity at 70.5 h of the first is higher: 0.762% for the first, -12.2% for the second.

Compared with `CSc1cc2c(cc1NC(=O)NCCn1ccnc1)OCCO2`, `CSc1cccc(CN(C)C(=O)Nc2nc(C)n(C)n2)c1` is lower in cytotoxicity at 70.5 h: -3% for the first, -3.93% for the second.

First: Cc1ccc(OCC(O)COC2CCOCC2)c(Cl)c1 (stereo unspecified)
Second: CC(=O)N1CCC1c1cc(NC2CCOCC2)nc(C)n1 (stereo unspecified)
The cytotoxicity at 70.5 h of the first is higher: -0.327% for the first, -0.759% for the second.

Compared with `CN(C)c1ncc2c(n1)CCCC2NC(=O)c1ccsc1` (stereo unspecified), `Cc1nc(N2CCCN(C(=O)c3ccsc3)CC2)c2cnn(C)c2n1` is higher in cytotoxicity at 70.5 h: -3.74% for the first, -2.94% for the second.

Going from `COc1ccc(-c2noc([C@@H](C)NC(=O)NC(C)(C)C)c2C(=O)O)cc1` to `Cc1nc(-c2ccc(CNS(=O)(=O)N(C)C)cc2)ccc1C(N)=O`, the cytotoxicity at 70.5 h rises from -10.4% to -2.19%.

Compared with `Cc1cnn(CC(=O)N(CC2CN(C)CCO2)c2nccs2)c1` (stereo unspecified), `CN(CC1CCCCC1)C(=O)c1cn(C)nc1-c1cccnc1` is higher in cytotoxicity at 70.5 h: -14.4% for the first, 3.52% for the second.

Compared with `CN(C)C(=O)[C@@H]1CC[C@@H]2[C@@H](CCN2Cc2ccccn2)O1`, `Cc1ccc(N2CC[C@H]3C[C@H](C(=O)NCc4ccco4)O[C@H]3C2)nn1` is lower in cytotoxicity at 70.5 h: -7.99% for the first, -11.1% for the second.

First: COc1cc(CNC(C)c2cccc(Cl)c2)cc(OC)c1OC (stereo unspecified)
Second: COc1cccc(C2CC(=O)Nc3nc(N)sc32)c1OC (stereo unspecified)
The cytotoxicity at 70.5 h of the first is lower: -9.01% for the first, 12.4% for the second.

Going from `COc1cc2nc(C)n(CC(=O)NCCN(C)C)c(=O)c2cc1OC` to `CCOc1ccc(C(=O)NS(=O)(=O)c2cncc(Br)c2)cc1OC`, the cytotoxicity at 70.5 h rises from -17.2% to 18.9%.

First: Cc1ccc(F)c(NC(=O)CCC(=O)N(C)Cc2nc(C)c[nH]2)c1
Second: CCc1nnsc1C(=O)N(C)Cc1ccc(C)o1
The cytotoxicity at 70.5 h of the first is lower: -5.55% for the first, -0.808% for the second.

Compared with `O=C(c1ccncn1)N1C[C@H]2CCC[C@@]2(COCC2CCOCC2)C1`, `Cn1nnc2c1C(COCC1CC1)CN(C(=O)C1=CCCC1)C2` (stereo unspecified) is higher in cytotoxicity at 70.5 h: -14.6% for the first, -9.91% for the second.

Compared with `O=C(O)c1ccc2c(c1)C1(CCCCC1)CN2C(=O)c1ccnnc1`, `Cc1cc(C(=O)N2CCC3(CC2)CC(c2cccnc2)C(=O)N3)no1` (stereo unspecified) is higher in cytotoxicity at 70.5 h: -4.43% for the first, 1.95% for the second.

First: Cc1ccc(N2CC[C@@H]3[C@@H]2CCN3C(=O)c2cscn2)nn1
Second: CCN1CCn2c(C)cnc2C12CCN(C(=O)c1cscn1)CC2
The cytotoxicity at 70.5 h of the first is lower: -4.17% for the first, 4.22% for the second.

Going from `Cc1ncsc1C(=O)NCCNC(=O)OC(C)(C)C` to `CC(C)CNC(=O)CNC(=O)c1nc(Cc2c(Cl)cccc2Cl)no1`, the cytotoxicity at 70.5 h falls from -2.69% to -9.72%.

First: CCc1nc(CN2CC(C(=O)OC)O[C@H](C)C2)cs1 (stereo partly specified)
Second: Cc1cncc(C(=O)N2C[C@@H](C(=O)O)[C@H](C(C)C)C2)c1
The cytotoxicity at 70.5 h of the first is lower: -8.81% for the first, 28.4% for the second.

Compared with `CC(=O)N1CCC(N2C[C@@H](F)[C@@H](OCc3nc4ncccc4[nH]3)C2)CC1`, `OC1CCN(C2CCN(Cc3cnc(-c4cccs4)nc3)CC2)CC1` is higher in cytotoxicity at 70.5 h: -2.27% for the first, 12.5% for the second.

Compared with `CN(C)CC(Nc1nc(N)nc2c1CCNCC2)c1ccccc1` (stereo unspecified), `Cc1n[nH]c(SCCNC2CCN(c3nc4ccccc4s3)CC2)n1` is higher in cytotoxicity at 70.5 h: -18.8% for the first, 2% for the second.

Compared with `Cc1oncc1C(=O)N[C@@H]1CN(c2ncccn2)C[C@@H]2CCCO[C@@H]21`, `CC(C)Nc1ncnc2c1CCN(C(=O)c1ccncc1F)CC2` is higher in cytotoxicity at 70.5 h: -10.7% for the first, 5.41% for the second.

Going from `Cc1cccc(CN2CCN3C(=O)NC[C@H]3C2)n1` to `Cc1ccc(C2(O)CCN(C(=O)CCn3ccc(=O)[nH]c3=O)CC2)nc1`, the cytotoxicity at 70.5 h falls from -2.26% to -10.1%.

First: CN1C[C@@H](n2cnc(-c3ccccc3)c2-c2c[nH]cn2)C[C@H]1C(=O)O
Second: CC(c1ccccc1Cl)N1CCN(C(=O)c2ccc(=O)[nH]c2)CC1 (stereo unspecified)
The cytotoxicity at 70.5 h of the first is lower: -7.26% for the first, 2% for the second.

Compared with `COc1ccc(CCn2ccnc2-c2cc3n(n2)CCCNC3)cc1`, `COC(=O)c1ccc(N2CCN(CCC(=O)NC(N)=O)C(C)C2)cc1` (stereo unspecified) is higher in cytotoxicity at 70.5 h: -10.7% for the first, -6.28% for the second.

Compared with `CN(CC1(O)CCCN(CCC2CCCCC2)C1=O)C1CCOCC1` (stereo unspecified), `CN(C)c1cccc(C(=O)N2CCCSCC2CN2CCCC2)c1` (stereo unspecified) is higher in cytotoxicity at 70.5 h: -5.64% for the first, 3.97% for the second.

Compared with `Cn1c(N)c2c(=O)n(C)c(-c3ccc(Cl)cc3Cl)cc2c(C#N)c1=O`, `CC(NC(=O)NCCCc1n[nH]c(N)c1C#N)c1ccc(Cl)cc1` (stereo unspecified) is higher in cytotoxicity at 70.5 h: -4.83% for the first, -0.0754% for the second.

Going from `COCCN(C)C[C@@H]1CN(Cc2ccnc3ccccc23)C[C@@H]1CO` to `N#CCCN(C(=O)CN1CCCC1c1ccsc1)c1ccccc1` (stereo unspecified), the cytotoxicity at 70.5 h rises from -16.1% to 20.9%.

Going from `Cc1ccoc1C(=O)N1C[C@@H]2COC[C@]2(CNS(C)(=O)=O)C1` to `CCC(CC)CNCC1(S(C)(=O)=O)CCOCC1`, the cytotoxicity at 70.5 h falls from -3.33% to -3.95%.

With `Cn1nc(CC(C)(C)C)cc1NC(=O)c1ccc2[nH]nnc2c1` the cytotoxicity at 70.5 h was 19%.

Source: ChEMBL document CHEMBL3507680, “University of Dundee, Gates Library screen for HepG2 cell viability”
